Values quoted from earlier work as cited in article PMC5132270 (Cancer Science, 2016).

What was measured:
[1] = tested on: models of crizotinib resistance; settings: preclinical studies

Row | SMILES | antitumor effect [1] | median PFS (ALK+ NSCLC)
1 | CCc1cc2c(cc1N1CCC(N3CCOCC3)CC1)C(C)(C)c1[nH]c3cc(C#N)ccc3c1C2=O [alectinib] | tumor size reduction | –
2 | Cc1cc(Nc2ncc(Cl)c(Nc3ccccc3S(=O)(=O)C(C)C)n2)c(OC(C)C)cc1C1CCNCC1 [ceritinib] | – | 7.0 months
